Laboratory results: patent publication US20240108602A1, “TREATMENT OF MENTAL DISORDERS” (GH Research Ireland Limited, priority 2022, published 2024)

Assays:
[1] = test system: Escherichia coli (WP2 uvrA pKM101); assay: Bacterial mutation test, Escherichia coli; type: cell-based; details: up to 5000 pg/plate, with and without S-9
Source text: These conditions included treatments at concentrations up to […] (the maximum recommended concentration according to current regulatory guidelines), in the absence and in the presence of a rat liver metabolic activation system (S-9).

[2] = test system: human plasma proteins; assay: 5-MeO-DMT binding to human plasma proteins, high throughput dialysis; type: in vitro ADME; details: 4-hour dialysis
Protocol: Following evaluation of the equilibration data, plasma protein binding was investigated at nominal concentrations of 0.1, 1 and 10 μM using a 4-hour dialysis time. […]

For `COc1ccc2[nH]cc(CCN(C)C)c2c1` [5-MeO-DMT], the induction of mutation [1] was “did not induce mutation”, the “Free Fraction in human plasma” value ([2]; 0.1 μM) was 78.7% and the “Free Fraction in human plasma” value ([2]; 1 μM) was 77.3%. The “Free Fraction in human plasma” value ([2]; 10 μM) was 87.0%.
